Reference: patent US7906484B2, “Complex for transferring an anionic substance into a cell” (Alnylam Pharmaceuticals, Inc., priority 2006, dated 2011)

How the values were obtained:
eGFP-mRNA = assay: Influence of peptide/siRNA ratio on siRNA activity in HCT116 cells; format: cell-based; details: 250 nM siRNA
Experimental: The optimal ratio of (peptide):(anionic substance) for complex formation, was determined in section 3 above to lie in the range of 8:1 to 13:1 by titrating a fixed concentration of the anionic substance with increasing amounts of the peptide, and monitoring complex formation by electrophoresis of the mixture. To further validate and possibly narrow down the optimum ratio of peptide/anionic substance, an assay with a functional readout was performed. HCT116 cells were incubated with siRNA complexes as described above at concentrations such that the amount of siRNA in the incubation mixture corresponds to a 250 nM concentration of the siRNA, and the peptide/siRNA ratio was 8:1, 10:1, 12:1, or 14:1.

[1] = system: E6AP mRNA in HCT116 cells; assay: siRNA AD-8724 delivery into HCT116 cells, inhibition of E6AP mRNA expression by bDNA assay; format: cell-based, human
Experimental: All further experiments were carried out using HCT116 cells and inhibition of E6AP expression as readout.
HCT116-cells were obtained from the American Type Culture Collection (ATCC# CCL-247). They were cultured in McCoy's 5A medium (Biochrom AG, Berlin, Germany, Cat.# F1015) containing 10% fetal calf serum (FCS; Biochrom AG, Berlin, Germany, Cat.# S0115) and 2 mM L-Glutamin (Biochrom AG, Berlin, Germany, Cat.#: K0283) (standard growth medium). For incubation with peptide/siRNA, complexes, the medium was replaced by serum-free McCoy's 5A medium containing 2 mM L-Glutamin (serum free medium). After incubation with complexes for 4 h, McCoy's 5A medium containing 30% fetal calf serum and 2 mM L-Glutamin (triple FCS medium) was added to restore an overall 10% FCS in the medium.
The E6AP-specific siRNA denoted AD-8724 herein was used, having the following sequences: antisense strand: 5′-ucacauuccacguuaggugTsT-3′ (SEQ ID NO:51), sense strand 5′-caccuaacguggaaugugaTsT-3′; (SEQ ID NO:52; lower case letters: ribonucleotides; s: phosphorothioate backbone linkage). As a negative control, an siRNA specific for eGFP, denoted AD-5107 herein, was used, having the following sequences: antisense strand: 5′-aagucgugcugcuucauguggOMesuOMesc-3′ (SEQ ID NO:19), sense strand 5′-[…]-3′ (SEQ ID NO:18; lower case letters: ribonucleotides; subscript OMe: 2′-O-methyl-ribonucleotide; s: phosphorothioate backbone linkage). In addition to the non-specific control siRNA AD-5107, mock transfected cells treated with standard growth medium only were used as negative controls. As a positive control, AD-8724 was transfected into the cells using Lipofectamine2000™ (Invitrogen, Karlsruhe, Germany, Cat. No. 11668-019). As a further control, AD-5107 was transfected into cells using Lipofectamine2000™. All assays were performed in quadruplicates.
SiRNA/peptide complexes were prepared by mixing a solution of the siRNA in deionized water with a solution of the peptide in deionized water at the appropriate concentrations to give the desired ratio of siRNA/peptide at the desired concentration of the complex. The mixture was incubated at room temperature for 30 min and kept at 4° C. until use, and used within 24 h.
For transfections with siRNA/peptide complexes, 1.5×10^5 HCT116-cells per well in 150 μl standard growth medium were seeded into polystyrene 96 well plates and grown for 24 h at 37° C. in an atmosphere containing 5% CO2. The medium was removed by aspiration, and 90 μl serum-free medium and 10 μl of siRNA/peptide complex solution were added. Cells were incubated for 4 h at 37° C./5% CO2, 50 μl triple FCS medium were added, and the cells incubated for another 20 h under identical conditions. Subsequently, E6AP mRNA content was determined as described below.
For Lipofectamine2000™ transfections, 0.5 μl Lipofectamine2000™ were mixed with 12 μl OptiMem™ (Invitrogen, Karlsruhe, Germany, Cat. No. 11058-021) and incubated for 15 min. 1 μl of a 5 μM solution of the respective siRNA in PBS (Biochrom AG, Berlin, Germany, Cat-No: L182-05) were added to 11.5 μl OptiMeM™, mixed with the Lipofectamine2000™/OptiMem™ solution, and incubated for further 15 min. 1.5×10^5 HCT116-cells per well in 150 μl standard growth medium were grown for 24 h as described above, the growth medium removed from the cells by aspiration, and 75 μl fresh standard growth medium and the 25 μl of the siRNA/Lipofectamine2000™ mix were added to the well, to give a final siRNA concentration of 50 nM. The cells were incubated for 24 h at 37° C./5% CO2 and E6AP mRNA concentration determined.
The QuantiGene™ bDNA-kit from Panomics, Inc., Fremont, USA, was used according to manufacturer's instructions. Briefly, cells were lysed by adding 50 μl of Lysis Mixture (from QuantiGene bDNA-kit) to each well and incubation at 53° C. for 1 h. […]

[2] = siRNA AD-8724 250 nM, molar peptide/siRNA ratio 12.5:1
[3] = AD-8724, siRNA/peptide conc. 25 nM/250 nM
[4] = AD-8724, siRNA/peptide conc. 250 nM/2.5 μM
[5] = AD-8724, siRNA/peptide conc. 1 μM/10 μM

## HLFRHLLRLLRRLWHLLHRA [AP-14]
eGFP-mRNA; peptide/siRNA ratio 8:1
  Remaining eGFP-mRNA in % of mock-transfected controls: 41 ± 2%
eGFP-mRNA; peptide/siRNA ratio 10:1
  Remaining eGFP-mRNA in % of mock-transfected controls: 41 ± 12%
eGFP-mRNA; peptide/siRNA ratio 12:1
  Remaining eGFP-mRNA in % of mock-transfected controls: 19 ± 2%
eGFP-mRNA; peptide/siRNA ratio 14:1
  Remaining eGFP-mRNA in % of mock-transfected controls: 39 ± 7%
[1]; [2]
  remaining E6AP mRNA (in % of mock): 56 ± 21%

## HLFRHLLRLLRHLWRHLLRA [AP-15]
eGFP-mRNA; peptide/siRNA ratio 8:1
  Remaining eGFP-mRNA in % of mock-transfected controls: 32 ± 5%
eGFP-mRNA; peptide/siRNA ratio 10:1
  Remaining eGFP-mRNA in % of mock-transfected controls: 26 + 2%
eGFP-mRNA; peptide/siRNA ratio 12:1
  Remaining eGFP-mRNA in % of mock-transfected controls: 22 ± 4%
eGFP-mRNA; peptide/siRNA ratio 14:1
  Remaining eGFP-mRNA in % of mock-transfected controls: 43 ± 5%
[1]; [2]
  remaining E6AP mRNA (in % of mock): 77 ± 39%

## HLFRALLRLLRHLWRLLLRAHHHHH [AP-29]
[1]; [3]
  remaining E6AP mRNA (in % of mock): 58 ± 8%
[1]; [4]
  remaining E6AP mRNA (in % of mock): 16 ± 2%
[1]; [5]
  remaining E6AP mRNA (in % of mock): 11 ± 1%

## HLFRALLRLLRHLWRLLHRA [AP-11]
eGFP-mRNA; peptide/siRNA ratio 8:1
  Remaining eGFP-mRNA in % of mock-transfected controls: 27 ± 5%
eGFP-mRNA; peptide/siRNA ratio 10:1
  Remaining eGFP-mRNA in % of mock-transfected controls: 30 ± 8%
eGFP-mRNA; peptide/siRNA ratio 12:1
  Remaining eGFP-mRNA in % of mock-transfected controls: 30 ± 5%
eGFP-mRNA; peptide/siRNA ratio 14:1
  Remaining eGFP-mRNA in % of mock-transfected controls: 24 ± 5%
[1]; [2]
  remaining E6AP mRNA (in % of mock): 62 ± 15%

## GLFRALARALRSLWRALARA [AP-25]
[1]; [2]
  remaining E6AP mRNA (in % of mock): 83 ± 5%

## GLFRALLRLLRSLWRLLRRA [AP-2]
eGFP-mRNA; peptide/siRNA ratio 8:1
  Remaining eGFP-mRNA in % of mock-transfected controls: 54 ± 6%
eGFP-mRNA; peptide/siRNA ratio 10:1
  Remaining eGFP-mRNA in % of mock-transfected controls: 35 ± 15%
eGFP-mRNA; peptide/siRNA ratio 12:1
  Remaining eGFP-mRNA in % of mock-transfected controls: 32 ± 11%
eGFP-mRNA; peptide/siRNA ratio 14:1
  Remaining eGFP-mRNA in % of mock-transfected controls: 36 ± 7%
[1]; [2]
  remaining E6AP mRNA (in % of mock): 58 ± 7%

## RLFRALRRLLRRLWRLLRRA [AP-8]
[1]; [2]
  remaining E6AP mRNA (in % of mock): 170 ± 44%

## RLFRALLRLLRRLWRLLRRA [AP-7]
[1]; [2]
  remaining E6AP mRNA (in % of mock): 134 ± 19%

## RLFRALLRLLRSLWRLLRRAHHHHH [AP-28]
[1]; [3]
  remaining E6AP mRNA (in % of mock): 105 ± 13%
[1]; [4]
  remaining E6AP mRNA (in % of mock): 30 ± 9%
[1]; [5]
  remaining E6AP mRNA (in % of mock): 18 ± 2%

## HLFRALRRLLRHLWRLLRRA [AP-13]
[1]; [2]
  remaining E6AP mRNA (in % of mock): 59 ± 7%

## GAFRAALRLLRSLWRLLLRA [AP-21]
[1]; [2]
  remaining E6AP mRNA (in % of mock): 53 ± 32%

## RLFPALLRLLRRLWRLLLRA [AP-6]
eGFP-mRNA; peptide/siRNA ratio 8:1
  Remaining eGFP-mRNA in % of mock-transfected controls: 62 ± 9%
eGFP-mRNA; peptide/siRNA ratio 10:1
  Remaining eGFP-mRNA in % of mock-transfected controls: 36 ± 8%
eGFP-mRNA; peptide/siRNA ratio 12:1
  Remaining eGFP-mRNA in % of mock-transfected controls: 63 ± 18%
eGFP-mRNA; peptide/siRNA ratio 14:1
  Remaining eGFP-mRNA in % of mock-transfected controls: 54 ± 9%
[1]; [2]
  remaining E6AP mRNA (in % of mock): 41 ± 11%

## GAYRAALRLLRSLWRLLSRA [AP-26]
[1]; [2]
  remaining E6AP mRNA (in % of mock): 78 ± 6%

## GLFRALLRLLRSLWRSLSRA [AP-18]
[1]; [2]
  remaining E6AP mRNA (in % of mock): 49 ± 3%

## GLFRALLRLLRRLWRLLLRA [AP-3]
eGFP-mRNA; peptide/siRNA ratio 8:1
  Remaining eGFP-mRNA in % of mock-transfected controls: 39 ± 10%
eGFP-mRNA; peptide/siRNA ratio 10:1
  Remaining eGFP-mRNA in % of mock-transfected controls: 32 ± 4%
eGFP-mRNA; peptide/siRNA ratio 12:1
  Remaining eGFP-mRNA in % of mock-transfected controls: 40 ± 5%
eGFP-mRNA; peptide/siRNA ratio 14:1
  Remaining eGFP-mRNA in % of mock-transfected controls: 40 ± 8%
[1]; [2]
  remaining E6AP mRNA (in % of mock): 43 ± 7%

## GAFRAAARLLRSLWRLLLRA [AP-23]
[1]; [2]
  remaining E6AP mRNA (in % of mock): 82 ± 6%

## GLYRALLRLLRSLWRLLSRA [AP-20]
[1]; [2]
  remaining E6AP mRNA (in % of mock): 45 ± 6%

## GAFRAAARLLRSLWRALLRA [AP-24]
[1]; [2]
  remaining E6AP mRNA (in % of mock): 91 ± 16%

## GLFRALRRLLRSLWRLLRRA [AP-5]
[1]; [2]
  remaining E6AP mRNA (in % of mock): 108 ± 47%

## GLYRALLRLLRSLWRLLLRA [AP-19]
[1]; [2]
  remaining E6AP mRNA (in % of mock): 27 ± 9%

## HLFRALHRLLRHLWRLLHRA [AP-12]
[1]; [2]
  remaining E6AP mRNA (in % of mock): 94 ± 31%

## GLFRALLRLLRSLWRALARA [AP-22]
[1]; [2]
  remaining E6AP mRNA (in % of mock): 32 ± 14%

## GLFRALLRLLRSLWRSLLRA [AP-17]
[1]; [2]
  remaining E6AP mRNA (in % of mock): 37 ± 9%

## GLFRALLRLLRSLWRLLSRA [AP-16]
[1]; [2]
  remaining E6AP mRNA (in % of mock): 43 ± 13%

## HLFRALLRLLRSLWRLLHRA [AP-9]
eGFP-mRNA; peptide/siRNA ratio 8:1
  Remaining eGFP-mRNA in % of mock-transfected controls: 38 ± 6%
eGFP-mRNA; peptide/siRNA ratio 10:1
  Remaining eGFP-mRNA in % of mock-transfected controls: 31 ± 3%
eGFP-mRNA; peptide/siRNA ratio 12:1
  Remaining eGFP-mRNA in % of mock-transfected controls: 22 ± 1%
eGFP-mRNA; peptide/siRNA ratio 14:1
  Remaining eGFP-mRNA in % of mock-transfected controls: 36 ± 7%
[1]; [2]
  remaining E6AP mRNA (in % of mock): 53 ± 17%
